The NIST ThermoML archive (doi:10.1016/j.fluid.2007.12.005)
Where “and” joins values, the source holds several entries; their conditions need not be identical. Equal values may be shown once. Numbers after ± are expanded uncertainties.

Details: 313.15 K; Liquid; Closed cell (Static) method

Row | vapor or sublimation pressure | Compound
1 | 31.64 ± 0.12 kPa and 31.65 ± 0.12 kPa | CCOC(C)(C)C [2-ethoxy-2-methylpropane]
2 | 12.31 ± 0.056 kPa and 12.32 ± 0.056 kPa | CCCCCCC [heptane]
3 | 44.96 ± 0.24 kPa and 44.95 ± 0.24 kPa | C=CCCCC [hex-1-ene]
